Biological target: T1, PI3Kα (p110α) (Homo sapiens, UniProt P42336)
T1 construct: gene PIK3CA; N-6*His tag-TEV site-p85α (318–615) - GSPGISGGGGG-full length p110α fusion protein; with p85α (318–615), PIK3R1
Test: X-ray co-crystal structure (apo crystals soaked); IC50 from PI3K HTRF assay on purified enzyme
Assay type: biochemical
Excerpt: X-ray co-crystal structure (apo crystals soaked); IC50 from PI3K HTRF assay on purified enzyme on PI3Kα (p110α) | The crystal structure of PI3Kα–YXY-4F verified that the compound YXY-4F bound to the ATP-binding pocket

T1 sequence (P42336 whole entry, the tested form may be a part): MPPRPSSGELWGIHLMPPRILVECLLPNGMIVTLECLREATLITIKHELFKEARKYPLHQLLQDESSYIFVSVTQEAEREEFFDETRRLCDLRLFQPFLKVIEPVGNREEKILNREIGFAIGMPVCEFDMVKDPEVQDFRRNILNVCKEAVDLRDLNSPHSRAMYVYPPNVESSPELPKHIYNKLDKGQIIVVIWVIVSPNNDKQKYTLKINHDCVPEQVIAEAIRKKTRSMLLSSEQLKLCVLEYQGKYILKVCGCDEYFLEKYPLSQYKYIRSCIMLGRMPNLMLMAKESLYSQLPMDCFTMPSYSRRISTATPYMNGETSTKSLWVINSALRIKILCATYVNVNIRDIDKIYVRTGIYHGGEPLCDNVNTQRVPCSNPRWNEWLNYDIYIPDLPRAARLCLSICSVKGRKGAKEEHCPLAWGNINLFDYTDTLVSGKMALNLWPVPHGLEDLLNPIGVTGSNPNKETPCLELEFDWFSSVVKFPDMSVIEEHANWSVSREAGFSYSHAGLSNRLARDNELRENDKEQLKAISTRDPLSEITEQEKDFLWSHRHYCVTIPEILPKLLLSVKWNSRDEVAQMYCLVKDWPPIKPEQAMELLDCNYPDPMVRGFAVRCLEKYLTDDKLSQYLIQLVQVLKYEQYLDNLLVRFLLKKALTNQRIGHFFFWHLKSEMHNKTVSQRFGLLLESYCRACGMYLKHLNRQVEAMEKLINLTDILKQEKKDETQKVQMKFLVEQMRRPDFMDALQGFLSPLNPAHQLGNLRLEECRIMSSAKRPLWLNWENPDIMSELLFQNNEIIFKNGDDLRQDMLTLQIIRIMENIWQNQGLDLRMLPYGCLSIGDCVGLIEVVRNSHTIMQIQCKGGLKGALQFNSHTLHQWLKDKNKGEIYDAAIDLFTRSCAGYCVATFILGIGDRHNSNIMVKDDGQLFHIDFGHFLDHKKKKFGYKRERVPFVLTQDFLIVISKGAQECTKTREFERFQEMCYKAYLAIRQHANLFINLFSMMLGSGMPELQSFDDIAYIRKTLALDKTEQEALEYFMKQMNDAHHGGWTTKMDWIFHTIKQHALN
T1 sequence (P27986 318-615 partner): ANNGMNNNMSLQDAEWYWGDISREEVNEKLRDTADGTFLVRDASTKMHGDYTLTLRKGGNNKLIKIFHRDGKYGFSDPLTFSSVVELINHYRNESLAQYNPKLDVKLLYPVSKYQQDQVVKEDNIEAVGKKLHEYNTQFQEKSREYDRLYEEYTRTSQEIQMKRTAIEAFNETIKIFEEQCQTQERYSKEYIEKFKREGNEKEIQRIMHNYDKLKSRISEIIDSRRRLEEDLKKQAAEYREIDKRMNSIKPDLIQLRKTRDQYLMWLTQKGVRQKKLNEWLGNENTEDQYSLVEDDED

`Oc1cc(NCc2ccc(F)cc2)cc(-c2nc(N3CCOCC3)c3sccc3n2)c1` [YXY-4F] was tested, and the IC50 was 1.02 ± 0.005 µM.
